# Test system: clinical patients
# Test: Clinical patient encounters treated with vascular dysregulation techniques (trigger elimination plus calcium channel blocker and/or antiemetic); case reports
# Type: in vivo, human
# Conditions: person
# Protocol: At Step 36, a personal and family medical history of a patient is collected during a patient encounter. […] At Step 42, a list of environmental triggers for the one or more determined dysregulation pathways to be avoided is prepared for the patient. At Step 44, a list of medical triggers for the one or more determined dysregulation pathway to be avoided is prepared for the patient. At Step 46, the patient's current medication profile, if any, is adjusted for the one or more determined dysregulation pathways, thereby treating the medical condition via the one or more determined dysregulation pathways.
# At Step 50, a test is conducted to determine whether a patient has a chronic medical condition and has one or more common symptoms based on a personal and medical history collected during a patient encounter. […] The vascular dysregulation techniques include eliminating environmental triggers, eliminating medical triggers and adjusting patient's current medication profile.
smiles,measurement,setting,value
COc1ccc([C@@H]2Sc3ccccc3N(CCN(C)C)C(=O)[C@@H]2OC(C)=O)cc1 [diltiazem],"Cold toes and fingers, Patient E","cold toes and fingers, migraine headaches, off caffeine",obtained warm fingers and toes
same,"Severe headaches and insomnia, Patient H","coffee and diet sodas eliminated, daily dose",severe headaches were eliminated and they are sleeping soundly
same,"Singing voice (unexpected effect), Patient E","off caffeine, presumed secondary to decreased post-nasal drip and nasal congestion",significantly stronger singing voice
